Data reported in PubChem BioAssay (NCI).
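Assay format: 96-well plates, 48-hour exposure. GI50: concentration for 50% inhibition of growth. Definition used: TGI = concentration required for complete inhibition of growth.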

Key:
Assay in all cases: NCI tumour cell line growth inhibition, 48 h
[1] = system: 786-0 renal
[2] = system: A498 renal
[3] = system: A549 NSCLC
[4] = system: ACHN renal
[5] = system: BT-549 breast
[6] = system: CAKI-1 renal
[7] = system: CCRF-CEM leukemia
[8] = system: COLO 205 colon
[9] = system: DU-145 prostate
[10] = system: EKVX NSCLC
[11] = system: HCC-2998 colon
[12] = system: HCT-116 colon
[13] = system: HCT-15 colon
[14] = system: HL-60(TB) leukemia
[15] = system: HOP-62 NSCLC
[16] = system: HOP-92 NSCLC
[17] = system: HS 578T breast
[18] = system: HT29 colon
[19] = system: IGROV1 ovarian
[20] = system: K-562 leukemia
[21] = system: KM12 colon
[22] = system: LOX IMVI melanoma
[23] = system: M14 melanoma
[24] = system: MALME-3M melanoma
[25] = system: MCF7 breast
[26] = system: MDA-MB-231 breast
[27] = system: MDA-MB-435
[28] = system: MOLT-4 leukemia
[29] = system: NCI-H226 lung
[30] = system: NCI-H23 lung
[31] = system: NCI-H460 lung
[32] = system: NCI-H522 lung
[33] = system: NCI/ADR-RES ovarian
[34] = system: OVCAR-3 ovarian
[35] = system: OVCAR-4 ovarian
[36] = system: OVCAR-5 ovarian
[37] = system: OVCAR-8 ovarian
[38] = system: PC-3 prostate
[39] = system: RPMI-8226 leukemia
[40] = system: RXF 393 renal
[41] = system: SF-268 CNS
[42] = system: SF-295 CNS
[43] = system: SF-539 CNS
[44] = system: SK-MEL-2 melanoma
[45] = system: SK-MEL-28 melanoma
[46] = system: SK-MEL-5 melanoma
[47] = system: SK-OV-3 ovarian
[48] = system: SN12C renal
[49] = system: SNB-19 CNS
[50] = system: SNB-75 CNS
[51] = system: SR leukemia
[52] = system: SW-620 colon
[53] = system: T-47D breast
[54] = system: TK-10 renal
[55] = system: U251 CNS
[56] = system: UACC-257 melanoma
[57] = system: UACC-62 melanoma
[58] = system: UO-31 renal

For `CC(=O)OCC1OC(n2c(-c3cccs3)c3c(c(C#N)c2=S)-c2ccccc2CC3)C(OC(C)=O)C(OC(C)=O)C1OC(C)=O` (centres undefined), the TGI [1] was 58.5 µM, the TGI [2] was 40.9 µM and the TGI [3] was > 87.1 µM. The TGI [4] was > 64 µM, the TGI [5] was > 55.6 µM and the TGI [6] was 64.7 µM. For the same molecule, the TGI [7] was > 83.6 µM, the TGI [8] was 32.9 µM and the TGI [9] was > 100 µM. For the same molecule, the TGI [10] was 70.9 µM, the TGI [11] was 33.5 µM and the TGI [12] was > 50.4 µM. The TGI [13] was > 56.8 µM, the TGI [14] was > 28.1 µM and the TGI [15] was > 65.4 µM. The TGI [16] was 29.9 µM, the TGI [17] was 70.3 µM and the TGI [18] was 27.2 µM. The TGI [19] was > 75.1 µM, the TGI [20] was > 100 µM and the TGI [21] was > 50.2 µM. For the same molecule, the TGI [22] was 22.5 µM, the TGI [23] was > 50.8 µM and the TGI [24] was > 51.8 µM. The TGI [25] was 49.2 µM, the TGI [26] was 87.9 µM and the TGI [27] was 9.09 µM. The TGI [28] was > 37.7 µM, the TGI [29] was > 56.7 µM and the TGI [30] was > 56.6 µM. The TGI [31] was > 45.8 µM, the TGI [32] was 34 µM and the TGI [33] was > 70.8 µM. The TGI [34] was 43.1 µM, the TGI [35] was > 95.7 µM and the TGI [36] was > 100 µM. The TGI [37] was > 46.6 µM, the TGI [38] was > 65.3 µM and the TGI [39] was 17 µM. For the same molecule, the TGI [40] was 29.3 µM, the TGI [41] was > 64.4 µM and the TGI [42] was > 55.8 µM. For the same molecule, the TGI [43] was > 49.3 µM, the TGI [44] was 31.5 µM and the TGI [45] was > 59.2 µM. For the same molecule, the TGI [46] was 23 µM, the TGI [47] was > 100 µM and the TGI [48] was > 100 µM. The TGI [49] was > 100 µM, the TGI [50] was 26.7 µM and the TGI [51] was > 29.8 µM. For the same molecule, the TGI [52] was > 63.4 µM, the TGI [53] was 42.8 µM and the TGI [54] was > 30.2 µM. The TGI [55] was > 53.8 µM, the TGI [56] was > 55.4 µM and the TGI [57] was 43.1 µM. For the same molecule, the TGI [58] was 20.6 µM.
In the case of `Clc1ccc(/C=C2\CCCC3C2=Nc2ccccc2NC3c2ccc(Cl)cc2)cc1` (centres undefined), the GI50 [1] is reported as 3.48 µM, the TGI [1] is reported as 16.2 µM and the GI50 [2] is reported as 2.15 µM. For the same molecule, the TGI [2] was 5.79 µM, the GI50 [3] was 2.88 µM and the TGI [3] was 9.11 µM. The GI50 [4] was 4.42 µM, the TGI [4] was > 25.4 µM and the GI50 [5] was 2.24 µM. It also gave a TGI [5] of 6.81 µM, a GI50 [6] of 3.95 µM and a TGI [6] of 69.9 µM. For the same molecule, the GI50 [7] was 3.18 µM, the TGI [7] was > 35.9 µM and the GI50 [8] was 3.11 µM. The TGI [8] was 8.2 µM, the GI50 [9] was 4.39 µM and the TGI [9] was 23.9 µM. For the same molecule, the GI50 [10] was 4.07 µM, the TGI [10] was 52.5 µM and the GI50 [11] was 1.92 µM. For the same molecule, the TGI [11] was 3.55 µM, the GI50 [12] was 1.59 µM and the TGI [12] was 3.02 µM. The GI50 [13] was 2.59 µM, the TGI [13] was 7.47 µM and the GI50 [14] was 4.85 µM. The TGI [14] was 33 µM, the GI50 [15] was 3.86 µM and the TGI [15] was 22.1 µM. It also gave a GI50 [16] of 7.99 µM, a TGI [16] of 37.9 µM and a GI50 [17] of 4.04 µM. The TGI [17] was > 27.7 µM, the GI50 [18] was 2.79 µM and the TGI [18] was 7.95 µM. It also gave a GI50 [19] of 3.3 µM, a TGI [19] of 10.2 µM and a GI50 [20] of 3.91 µM. For the same molecule, the TGI [20] was 27.8 µM, the GI50 [21] was 2.02 µM and the TGI [21] was 3.99 µM. It also gave a GI50 [22] of 1.74 µM, a TGI [22] of 3.18 µM and a GI50 [23] of 2.07 µM. The TGI [23] was 5.19 µM, the GI50 [24] was 16.8 µM and the TGI [24] was 49.2 µM. The GI50 [25] was 2.92 µM, the TGI [25] was > 34 µM and the GI50 [26] was 6.99 µM. The TGI [26] was 41.7 µM, the GI50 [27] was 2.87 µM and the TGI [27] was > 27.6 µM. For the same molecule, the GI50 [28] was 4.52 µM, the TGI [28] was 30.4 µM and the GI50 [29] was 1.91 µM. It also gave a TGI [29] of 4.19 µM, a GI50 [30] of 3.43 µM and a TGI [30] of 15.7 µM. The GI50 [31] was 4.47 µM, the TGI [31] was 16.4 µM and the GI50 [32] was 11.6 µM. The TGI [32] was 28.5 µM, the GI50 [33] was 4.66 µM and the TGI [33] was 52.3 µM. The GI50 [34] was 3.13 µM, the TGI [34] was 9.12 µM and the GI50 [35] was 3.77 µM. For the same molecule, the TGI [35] was > 52.7 µM, the GI50 [36] was 8.63 µM and the TGI [36] was 22.3 µM. It also gave a GI50 [37] of 2.75 µM, a TGI [37] of 8.31 µM and a GI50 [38] of 4.45 µM. The TGI [38] was > 41.5 µM, the GI50 [39] was 1.85 µM and the TGI [39] was 5.13 µM. It also gave a GI50 [40] of 1.81 µM, a TGI [40] of 3.47 µM and a GI50 [41] of 4.05 µM. The TGI [41] was > 77.7 µM, the GI50 [42] was 2.71 µM and the TGI [42] was 8.46 µM. It also gave a GI50 [43] of 4.75 µM, a TGI [43] of 47.4 µM and a GI50 [44] of 31.3 µM. The TGI [44] was > 64.8 µM, the GI50 [45] was 7.15 µM and the TGI [45] was 28.4 µM. It also gave a GI50 [46] of 2.91 µM, a TGI [46] of 7.19 µM and a GI50 [47] of 7.49 µM. The TGI [47] was > 100 µM, the GI50 [48] was 6.81 µM and the TGI [48] was 34.2 µM. The GI50 [49] was 7.01 µM, the TGI [49] was > 100 µM and the GI50 [50] was 12.3 µM. It also gave a TGI [50] of 57.5 µM, a GI50 [51] of 2.6 µM and a TGI [51] of 6.64 µM. For the same molecule, the GI50 [52] was 2.96 µM, the TGI [52] was 10.6 µM and the GI50 [53] was 6.27 µM. The TGI [53] was > 87.9 µM, the GI50 [54] was 11 µM and the TGI [54] was > 58.5 µM. The GI50 [55] was 2.05 µM, the TGI [55] was 4.71 µM and the GI50 [56] was 2.14 µM. It also gave a TGI [56] of 5.88 µM, a GI50 [57] of 6.7 µM and a TGI [57] of 25.4 µM. For the same molecule, the GI50 [58] was 3.15 µM and the TGI [58] was 12.5 µM.
